Data as given in patent US6867320B2, “Substituted phenylalkanoic acid derivatives and use thereof” (Asahi Kasei Pharma Corporation, priority 2002, dated 2005).

How the values were obtained:
[1] = system: IgE-stimulated footpad edema; assay: Mouse IgE-stimulated footpad edema reaction; assay type: in vivo; settings: C57BL/6 male mice, oral 0.1 to 500 mg/kg, compared with positive control group
Procedure: 4. Suppressing Effect on Mouse IgE-stimulated Footpad Edema Reaction
Suppression on footpad edema caused by IgE antibody as an allergic stimulant was studied by the following method. Groups of C57BL/6 male mice (9- to 11-week old) each consisting of five mice were used for the test. Anti-DNP-BSA IgE serum was subcutaneously administered in a volume of 20 μl to right hind leg footpad of each mouse one day before the test. A test compound was suspended or dissolved in purified water containing 0.5% methylcellulose and orally administered to the test animals at 0.1 to 500 mg/0.2 ml/kg. To the control group, purified water containing 0.5% methylcellulose was administered in a similar manner, which was not added with the test compound. Two hours after the administration of the test compound, 0.2 ml of a solution of DNP-BSA dissolved in physiological saline (Otsuka Pharmaceutical) at 2.5 μg/ml was intravenously administered. The thickness of right hind leg footpad was measured by using a digital thickness gauge (MITSUTOYO) 10, 15, 20, and 30 minutes after the administration of DNP-BSA. A difference of the thickness of footpad measured above and the thickness before the administration of the test compound measured beforehand was regarded as a thickness of edema.
For the thickness of the edema at 10, 15, 20 and 30 minutes after the DNP-BSA administration, a graph was prepared indicating time in abscissa and the edema thickness in ordinate, and edema thickness AUC […] was obtained by calculation according to the following equation. Edema thickness AUC (mm·minute)=1/2×10×A+5×(A+B)/2+5×(B+C)/2+10×(C+D)/2 • A: Edema thickness 10 minutes after DNP-BSA administration • B: Edema thickness 15 minutes after DNP-BSA administration • C: Edema thickness 20 minutes after DNP-BSA administration • D: Edema thickness 30 minutes after DNP-BSA administration
A suppressing ratio on edema of a test compound was obtained by calculation in accordance with the following equation. Edema suppression ratio (%)=[1−B/A]×100 • A: Edema thickness AUC of positive control • B: Edema thickness AUC of test compound administered group (2) Measurement Results

[2] = system: zymosan-stimulated footpad edema; assay: Mouse zymosan-stimulated footpad edema reaction; assay type: in vivo; settings: ICR female mice, oral 0.1 to 500 mg/kg, compared with positive control group
In short: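 Female ICR mice (6–7 weeks, n=8) dosed orally at 0.1 to 500 mg/kg in 0.5% methylcellulose; 1 h later zymosan (1 mg/ml, 0.02 ml) injected s.c. into right hind footpad. Edema volume at 1 and 2 h gave AUC to 2 h; suppression (%) calculated against positive control AUC.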

[3] = system: PGE2 production from IL-1β-stimulated MG-63 cells; assay: Suppressing action on PGE2 production from IL-1β-stimulated MG-63 cells; assay type: cell-based; settings: Homo sapiens, IL-1β 1 ng/ml, 18 hours, read-out: PGE2 production suppression ratio
In short: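 Human osteosarcoma MG-63 cells (2×10^4/well) switched to 0.5% FBS medium, treated with compound, then stimulated with IL-1β at 1 ng/ml final for 18 h. Supernatant PGE2 measured by EIA; suppression ratio calculated against stimulated and unstimulated wells.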

[4] = system: LTB4 production from IgE-stimulated RBL-2H3 cells; assay: Suppressing action on LTB4 production from IgE-stimulated RBL-2H3 cells; assay type: cell-based; settings: Rattus norvegicus, 10 min, IgE/DNP-BSA stimulated RBL-2H3 cells, read-out: LTB4 production suppression ratio
In short: (§1)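 Rat RBL-2H3 mastocytoma cells, sensitized 30 min with anti-DNP-BSA IgE, then given test compound in 0.5% FBS medium and stimulated with DNP-BSA (100 ng/ml final). Supernatant PGD2 and LTB4 were measured by EIA after 10 min. Suppression ratio is calculated against unstimulated and stimulant-only controls.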

[5] = system: PGD2 production from IgE-stimulated RBL-2H3 cells; assay: Suppressing action on PGD2 production from IgE-stimulated RBL-2H3 cells; assay type: cell-based; settings: Rattus norvegicus, 10 min, IgE/DNP-BSA stimulated RBL-2H3 cells, read-out: PGD2 production suppression ratio
In short: as §1

Structure (SMILES) | suppression of footpad edema caused by IgE stimulation [1] | suppression of footpad edema caused by zymosan [2] | inhibition at 0.4 µM [3] [%] | inhibition at 0.4 µM [4] [%] | inhibition at 0.4 µM [5] [%]
Cc1ccccc1CCOc1ccc(CCC(=O)O)cc1-c1ccc2[nH]ccc2c1 [Compound 200, 3-{3-(1H-indol-5-yl)-4-[2-(2-methylphenyl)ethyloxy]phenyl}propionic acid] | suppressed the footpad edema | suppressed footpad edema | ≥ 50 |  | 
COc1ccccc1CCOc1ccc(CCC(=O)O)cc1-c1ccc2[nH]ccc2c1 [Compound 205, 3-{3-(1H-indol-5-yl)-4-[2-(2-methoxyphenyl)ethyloxy]phenyl}propionic acid] | suppressed the footpad edema | suppressed footpad edema | ≥ 50 |  | 
O=C(O)CCc1ccc(OCCc2cccc(F)c2)c(-c2ccc3ccccc3c2)c1 [Compound 055, 3-{4-[2-(3-fluorophenyl)ethyloxy]-3-(naphthalen-2-yl)phenyl}propionic acid] | suppressed the footpad edema | suppressed footpad edema | ≥ 50 |  | 
O=C(O)CCc1ccc(OCC2CCCCC2)c(-c2cccc3[nH]ccc23)c1 [Compound 116, 3-[4-cyclohexylmethyloxy-3-(1H-indol-4-yl)phenyl]propionic acid] | suppressed the footpad edema | suppressed footpad edema | ≥ 50 |  | 
Cc1cccc(CCOc2ccc(CCC(=O)O)cc2-c2ccc3[nH]ccc3c2)c1 [Compound 202, 3-{3-(1H-indol-5-yl)-4-[2-(3-methylphenyl)ethyloxy]phenyl}propionic acid] | suppressed the footpad edema | suppressed footpad edema | ≥ 50 |  | 
Nc1ccc2ccc(-c3cc(CCC(=O)O)ccc3OCC3CCCC3)cc2c1 [Compound 014, 3-[3-(7-aminonaphthalen-2-yl)-4-cyclopentylmethyloxyphenyl]propionic acid] | suppressed the footpad edema |  | ≥ 50 | ≥ 50 | ≥ 50
O=C(O)CCc1ccc(OCCSc2ccccc2)c(-c2ccc3[nH]ccc3c2)c1 [Compound 228, 3-{3-(1H-indol-5-yl)-4-[2-(phenylthio)ethyloxy]phenyl}propionic acid] | suppressed the footpad edema | suppressed footpad edema | ≥ 50 |  | 
O=C(O)CCc1ccc(OCc2cccc(Cl)c2Cl)c(-c2ccc3[nH]ccc3c2)c1 [Compound 160, 3-[4-(2,3-dichlorophenylmethyloxy)-3-(1H-indol-5-yl)phenyl]propionic acid] | suppressed the footpad edema |  | ≥ 50 | ≥ 50 | ≥ 50
O=C(O)CCc1ccc(OCc2cccc(F)c2)c(-c2ccc3ccccc3c2)c1 [Compound 033, 3-[4-(3-fluorophenylmethyloxy)-3-(naphthalen-2-yl)phenyl]propionic acid] | suppressed the footpad edema | suppressed footpad edema | ≥ 50 |  | 
Cn1ccc2c(-c3cc(CCC(=O)O)ccc3OC3CCCCC3)cccc21 [Compound 126, 3-[4-cyclohexyloxy-3-(1-methyl-1H-indol-4-yl)phenyl]propionic acid] | suppressed the footpad edema | suppressed footpad edema | ≥ 50 |  | 
O=C(O)CCc1ccc(OCCc2ccccc2C(F)(F)F)c(-c2ccc3[nH]ccc3c2)c1 [Compound 214, 3-[3-(1H-indol-5-yl)-4-{2-[2-(trifluoromethyl)phenyl]-ethyloxy}phenyl]propionic acid] | suppressed the footpad edema |  | ≥ 50 | ≥ 50 | ≥ 50
O=C(O)CCc1ccc(OCc2ccccc2-c2ccccc2)c(-c2ccc3[nH]ccc3c2)c1 [Compound 140, 3-{4-[(biphenyl-2-yl)methyloxy]-3-(1H-indol-5-yl)phenyl}propionic acid] | suppressed the footpad edema | suppressed footpad edema | ≥ 50 |  | 
O=C(O)CCc1ccc(OCCc2ccc3ccccc3c2)c(-c2ccc3[nH]ccc3c2)c1 [Compound 217, 3-{4-[2-(naphthalen-2-yl)ethyloxy]-3-(1H-indol-5-yl)phenyl}propionic acid] | suppressed the footpad edema |  | ≥ 50 | ≥ 50 | ≥ 50
O=C(O)CCc1ccc(OCCc2ccccc2Cl)c(-c2ccc3[nH]ccc3c2)c1 [Compound 209, 3-{4-[2-(2-chlorophenyl)ethyloxy]-3-(1H-indol-5-yl)phenyl}propionic acid] | suppressed the footpad edema | suppressed footpad edema | ≥ 50 |  | 
O=C(O)CCc1ccc(OCCc2ccc(F)cc2)c(-c2ccc3ccccc3c2)c1 [Compound 057, 3-{4-[2-(4-fluorophenyl)ethyloxy]-3-(naphthalen-2-yl)phenyl}propionic acid] | suppressed the footpad edema | suppressed footpad edema | ≥ 50 |  | 
O=C(O)CCc1ccc(OCc2ccc(Cl)c(Cl)c2)c(-c2ccc3[nH]ccc3c2)c1 [Compound 166, 3-[4-(3,4-dichlorophenylmethyloxy)-3-(1H-indol-5-yl)phenyl]propionic acid] | suppressed the footpad edema |  | ≥ 50 | ≥ 50 | ≥ 50
O=C(O)CCc1ccc(OCc2ccc(Br)cc2F)c(-c2ccc3[nH]ccc3c2)c1 [Compound 168] | suppressed the footpad edema | suppressed footpad edema |  |  | 
CCC(CC)COc1ccc(CCC(=O)O)cc1-c1ccc2[nH]ccc2c1 [Compound 183, 3-[4-(2-ethylbutyloxy)-3-(1H-indol-5-yl)phenyl]propionic acid] | suppressed the footpad edema | suppressed footpad edema | ≥ 50 |  | 
O=C(O)CCc1ccc(OCCOc2ccc(Cl)cc2)c(-c2ccc3[nH]ccc3c2)c1 [Compound 226, 3-{4-[2-(4-chlorophenyloxy)ethyloxy]-3-(1H-indol-5-yl)phenyl}propionic acid] | suppressed the footpad edema | suppressed footpad edema | ≥ 50 |  | 
O=C(O)CCc1ccc(OCc2cccc3ccccc23)c(-c2ccc3[nH]ccc3c2)c1 [Compound 190, 3-{3-(1H-indol-5-yl)-4-[(naphthalen-1-yl)methyloxy]phenyl}propionic acid] | suppressed the footpad edema |  | ≥ 50 | ≥ 50 | ≥ 50
